According to ChEMBL document CHEMBL1137842, “Fluorinated dihydroquinolines as potent n-NOS inhibitors” (Bioorg Med Chem Lett, 2004):

Columns and labels:
Nitric oxide synthase 1 = Nitric oxide synthase 1 (Homo sapiens, UniProt P29475); assay: Inhibition of human neuronal nitric oxide synthase
[1] = pKa value by photometric titration; type: physicochemical
[2] = molecular target: Nitric oxide synthase, inducible (Homo sapiens, UniProt P35228); assay: Inhibition of human inducible nitric oxide synthase
Nitric oxide synthase 3 = molecular target: T1, Nitric oxide synthase 3 (Homo sapiens, UniProt P29474); assay: Inhibition of human endothelial nitric oxide synthase
T1 sequence (P29474 whole entry): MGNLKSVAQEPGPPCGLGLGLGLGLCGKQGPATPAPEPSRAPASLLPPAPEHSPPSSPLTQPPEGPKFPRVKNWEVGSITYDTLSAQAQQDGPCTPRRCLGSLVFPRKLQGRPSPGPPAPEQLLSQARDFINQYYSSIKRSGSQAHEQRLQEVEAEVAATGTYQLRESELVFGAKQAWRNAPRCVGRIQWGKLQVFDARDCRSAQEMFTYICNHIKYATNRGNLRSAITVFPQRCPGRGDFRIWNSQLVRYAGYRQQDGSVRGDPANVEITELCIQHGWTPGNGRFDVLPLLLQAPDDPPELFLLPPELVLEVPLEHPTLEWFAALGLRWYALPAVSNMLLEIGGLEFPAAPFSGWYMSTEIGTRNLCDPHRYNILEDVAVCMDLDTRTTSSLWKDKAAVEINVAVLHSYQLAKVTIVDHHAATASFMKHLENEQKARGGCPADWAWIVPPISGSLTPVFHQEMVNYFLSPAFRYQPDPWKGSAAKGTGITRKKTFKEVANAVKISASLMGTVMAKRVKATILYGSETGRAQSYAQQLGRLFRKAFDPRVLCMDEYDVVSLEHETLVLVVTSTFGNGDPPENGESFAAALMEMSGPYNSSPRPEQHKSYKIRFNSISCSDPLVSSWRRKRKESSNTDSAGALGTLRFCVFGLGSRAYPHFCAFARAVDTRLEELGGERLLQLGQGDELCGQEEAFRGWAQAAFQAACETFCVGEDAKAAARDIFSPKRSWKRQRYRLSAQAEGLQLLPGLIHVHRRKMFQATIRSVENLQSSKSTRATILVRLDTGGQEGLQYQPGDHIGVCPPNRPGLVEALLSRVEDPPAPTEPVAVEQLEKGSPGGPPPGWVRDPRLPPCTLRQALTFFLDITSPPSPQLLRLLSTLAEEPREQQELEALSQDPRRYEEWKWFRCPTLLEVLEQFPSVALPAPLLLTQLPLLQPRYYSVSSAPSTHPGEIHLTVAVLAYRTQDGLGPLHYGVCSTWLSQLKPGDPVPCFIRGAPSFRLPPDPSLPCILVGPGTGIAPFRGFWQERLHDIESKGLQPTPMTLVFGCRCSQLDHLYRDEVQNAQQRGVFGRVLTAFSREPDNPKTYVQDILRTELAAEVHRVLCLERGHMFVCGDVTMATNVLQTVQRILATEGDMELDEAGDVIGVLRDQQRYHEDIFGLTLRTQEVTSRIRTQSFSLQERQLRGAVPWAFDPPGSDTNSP

Sequence of Nitric oxide synthase 1 (P29475 whole entry): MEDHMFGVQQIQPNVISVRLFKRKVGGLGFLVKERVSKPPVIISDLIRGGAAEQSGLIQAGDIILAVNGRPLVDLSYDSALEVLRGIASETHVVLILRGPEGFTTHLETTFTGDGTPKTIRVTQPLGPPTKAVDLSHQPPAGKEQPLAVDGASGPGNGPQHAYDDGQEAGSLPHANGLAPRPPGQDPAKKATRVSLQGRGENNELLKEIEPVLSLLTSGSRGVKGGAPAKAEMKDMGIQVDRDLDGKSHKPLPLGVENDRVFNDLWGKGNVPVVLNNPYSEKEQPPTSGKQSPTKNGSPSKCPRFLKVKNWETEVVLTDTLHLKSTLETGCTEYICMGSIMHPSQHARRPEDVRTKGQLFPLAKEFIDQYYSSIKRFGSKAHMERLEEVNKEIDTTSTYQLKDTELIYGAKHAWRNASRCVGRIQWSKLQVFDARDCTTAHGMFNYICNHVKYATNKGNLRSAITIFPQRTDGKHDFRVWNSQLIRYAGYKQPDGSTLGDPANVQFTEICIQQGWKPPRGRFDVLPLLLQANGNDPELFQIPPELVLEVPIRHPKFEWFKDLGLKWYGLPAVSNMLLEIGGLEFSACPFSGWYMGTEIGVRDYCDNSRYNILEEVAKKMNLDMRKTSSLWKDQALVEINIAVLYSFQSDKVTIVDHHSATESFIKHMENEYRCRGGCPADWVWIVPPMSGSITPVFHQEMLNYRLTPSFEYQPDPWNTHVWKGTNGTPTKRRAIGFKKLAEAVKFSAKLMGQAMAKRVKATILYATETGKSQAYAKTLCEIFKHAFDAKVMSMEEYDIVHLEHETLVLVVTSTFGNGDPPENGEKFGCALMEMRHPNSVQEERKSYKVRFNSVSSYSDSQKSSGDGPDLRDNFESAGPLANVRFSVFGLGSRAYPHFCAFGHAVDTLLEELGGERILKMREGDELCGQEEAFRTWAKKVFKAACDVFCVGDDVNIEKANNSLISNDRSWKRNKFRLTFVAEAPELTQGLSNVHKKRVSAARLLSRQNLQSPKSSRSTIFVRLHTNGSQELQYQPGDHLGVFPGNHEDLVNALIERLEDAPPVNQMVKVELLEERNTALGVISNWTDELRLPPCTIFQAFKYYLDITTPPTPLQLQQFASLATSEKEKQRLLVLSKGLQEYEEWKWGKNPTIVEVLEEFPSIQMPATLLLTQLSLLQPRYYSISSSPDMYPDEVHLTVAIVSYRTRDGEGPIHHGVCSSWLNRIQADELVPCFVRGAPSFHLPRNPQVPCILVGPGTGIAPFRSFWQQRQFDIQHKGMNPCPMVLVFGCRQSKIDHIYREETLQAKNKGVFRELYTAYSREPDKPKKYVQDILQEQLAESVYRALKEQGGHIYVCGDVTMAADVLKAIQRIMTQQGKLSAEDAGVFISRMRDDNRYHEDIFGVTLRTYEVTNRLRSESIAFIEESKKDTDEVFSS
Sequence of Nitric oxide synthase, inducible (P35228 whole entry): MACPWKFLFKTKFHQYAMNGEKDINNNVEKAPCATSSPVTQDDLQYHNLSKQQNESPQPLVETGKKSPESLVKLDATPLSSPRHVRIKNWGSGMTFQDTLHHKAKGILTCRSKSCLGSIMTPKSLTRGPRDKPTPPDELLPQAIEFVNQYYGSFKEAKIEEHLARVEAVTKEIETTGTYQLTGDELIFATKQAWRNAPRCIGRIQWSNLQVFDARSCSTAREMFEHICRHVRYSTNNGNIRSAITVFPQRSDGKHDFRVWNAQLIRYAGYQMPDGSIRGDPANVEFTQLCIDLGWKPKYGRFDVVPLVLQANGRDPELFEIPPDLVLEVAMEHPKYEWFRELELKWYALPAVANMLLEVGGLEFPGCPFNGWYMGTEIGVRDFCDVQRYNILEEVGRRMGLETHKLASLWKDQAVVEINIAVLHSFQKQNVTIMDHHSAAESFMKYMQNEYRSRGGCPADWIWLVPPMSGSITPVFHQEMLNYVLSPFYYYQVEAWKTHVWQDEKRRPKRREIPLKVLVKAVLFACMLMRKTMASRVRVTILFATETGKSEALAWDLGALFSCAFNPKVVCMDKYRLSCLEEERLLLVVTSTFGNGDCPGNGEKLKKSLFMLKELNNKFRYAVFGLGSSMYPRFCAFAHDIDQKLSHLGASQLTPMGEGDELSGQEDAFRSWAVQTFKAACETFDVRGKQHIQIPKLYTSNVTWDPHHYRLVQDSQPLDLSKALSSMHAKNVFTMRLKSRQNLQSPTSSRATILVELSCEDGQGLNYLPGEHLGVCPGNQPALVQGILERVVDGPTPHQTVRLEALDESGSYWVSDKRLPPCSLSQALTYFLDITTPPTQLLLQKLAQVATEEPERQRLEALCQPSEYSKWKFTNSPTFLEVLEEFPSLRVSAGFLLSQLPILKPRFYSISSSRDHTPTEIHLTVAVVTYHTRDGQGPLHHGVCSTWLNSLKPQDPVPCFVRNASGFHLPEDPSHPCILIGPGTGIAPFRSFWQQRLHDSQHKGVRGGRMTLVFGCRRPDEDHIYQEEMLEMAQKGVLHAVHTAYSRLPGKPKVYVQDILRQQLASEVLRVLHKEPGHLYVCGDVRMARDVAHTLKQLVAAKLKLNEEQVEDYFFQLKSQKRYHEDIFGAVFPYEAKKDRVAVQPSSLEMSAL

Compound	IC50 (Nitric oxide synthase 1) [nM]	pKa [1]	IC50 [2] [nM]	IC50 (Nitric oxide synthase 3) [nM]
NC1=Nc2cc(CCCNCc3cccc(Cl)c3)ccc2[C@H]2CCC[C@@]12F	310	8	2200	38000
CNCCc1ccc2c(c1)N=C(N)[C@]1(F)CCC[C@H]21	390	7.9	1900	79000
NC1=Nc2cc(CCCNCc3cccc(Cl)c3)ccc2[C@H]2CCC[C@@H]12		9.9		
NC1=Nc2ccc(Cl)cc2[C@H]2CCC[C@@]12F	290	7.6	8100	14000
NC1=Nc2ccc(Cl)cc2[C@H]2CCC[C@@H]12		9.4		
NC1=Nc2c(F)cc(Cl)cc2[C@H]2CCC[C@@H]12	290	8.2	8100	14000
NC1=Nc2c(F)cccc2[C@H]2CCC[C@@H]12		8.5		
NC1=Nc2ccccc2[C@H]2CCC[C@@]12F	100	7.9	2100	2700
NC1=Nc2c(F)cccc2[C@H]2CCC[C@@]12F	590	6.6	25000	22000
CNCc1ccc2c(c1)N=C(N)[C@]1(F)CCC[C@H]21	660		1400	66000
NC1=Nc2ccccc2[C@H]2CCC[C@@H]12		9.7		
NC1=Nc2c(ccc(F)c2F)[C@H]2CCC[C@@H]12		8		
